Data: ChEMBL document CHEMBL5465560, “Selectivity Literature for EUbOPEN Chemogenomic Library” (2024)
pIC50: −log10 of the molar value. One block for each compound: values may come before it.

Assays:
[1] = biological target: T1, Serine/threonine-protein kinase 17B (Homo sapiens) (UniProt O94768); test: Selectivity interaction (Kinase panel (DSF assay)) EUB0001558a STK17B
T1 sequence (whole entry): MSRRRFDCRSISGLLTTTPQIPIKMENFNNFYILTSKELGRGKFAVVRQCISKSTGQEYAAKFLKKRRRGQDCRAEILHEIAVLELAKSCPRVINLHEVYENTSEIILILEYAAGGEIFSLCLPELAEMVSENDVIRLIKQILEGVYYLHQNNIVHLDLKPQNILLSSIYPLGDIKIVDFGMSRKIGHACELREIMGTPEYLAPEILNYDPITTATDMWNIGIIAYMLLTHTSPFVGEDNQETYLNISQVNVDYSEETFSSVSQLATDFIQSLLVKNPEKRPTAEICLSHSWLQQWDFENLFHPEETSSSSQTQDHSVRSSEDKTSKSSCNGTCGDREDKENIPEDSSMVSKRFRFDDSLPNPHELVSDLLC

[2] = biological target: RAC-alpha serine/threonine-protein kinase (Homo sapiens, UniProt P31749); test: Selectivity interaction (KinomeScan (DiscoverX)) EUB0000045b AKT1
Chain of RAC-alpha serine/threonine-protein kinase (P31749 whole entry): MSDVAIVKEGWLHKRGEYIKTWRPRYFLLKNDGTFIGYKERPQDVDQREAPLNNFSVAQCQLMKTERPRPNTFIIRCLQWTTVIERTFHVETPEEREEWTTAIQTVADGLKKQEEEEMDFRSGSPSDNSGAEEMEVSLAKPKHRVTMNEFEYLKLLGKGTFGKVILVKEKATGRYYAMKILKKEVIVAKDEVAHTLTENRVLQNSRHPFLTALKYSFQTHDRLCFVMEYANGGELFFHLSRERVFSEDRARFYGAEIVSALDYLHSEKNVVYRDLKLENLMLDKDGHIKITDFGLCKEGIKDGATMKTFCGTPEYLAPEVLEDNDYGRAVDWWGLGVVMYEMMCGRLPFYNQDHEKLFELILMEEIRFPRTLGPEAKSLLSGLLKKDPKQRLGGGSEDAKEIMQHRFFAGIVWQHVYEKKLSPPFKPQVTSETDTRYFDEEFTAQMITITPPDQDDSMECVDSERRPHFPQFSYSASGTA

[3] = biological target: T2, Histone-arginine methyltransferase CARM1 (Homo sapiens) (UniProt Q86X55); details: KMS-12-BM, at 3 µM
T2 sequence (whole entry): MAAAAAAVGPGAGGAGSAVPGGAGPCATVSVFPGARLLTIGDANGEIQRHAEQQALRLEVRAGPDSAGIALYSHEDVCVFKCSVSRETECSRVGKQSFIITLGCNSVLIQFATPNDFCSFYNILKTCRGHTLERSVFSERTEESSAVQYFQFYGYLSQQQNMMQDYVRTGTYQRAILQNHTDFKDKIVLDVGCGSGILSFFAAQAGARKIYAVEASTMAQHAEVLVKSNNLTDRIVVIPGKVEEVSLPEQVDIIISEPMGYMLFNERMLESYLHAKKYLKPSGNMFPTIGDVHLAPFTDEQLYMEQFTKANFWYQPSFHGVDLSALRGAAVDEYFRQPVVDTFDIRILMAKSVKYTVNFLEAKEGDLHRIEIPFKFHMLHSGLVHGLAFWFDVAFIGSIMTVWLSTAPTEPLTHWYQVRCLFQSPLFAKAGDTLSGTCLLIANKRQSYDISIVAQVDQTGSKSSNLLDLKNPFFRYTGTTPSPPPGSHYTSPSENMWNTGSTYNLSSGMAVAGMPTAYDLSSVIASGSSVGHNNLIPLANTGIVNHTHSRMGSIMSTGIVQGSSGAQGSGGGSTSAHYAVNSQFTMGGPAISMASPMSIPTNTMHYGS

[4] = biological target: Dual specificity tyrosine-phosphorylation-regulated kinase 1A (Homo sapiens, UniProt Q13627); test: Selectivity interaction (Enzymatic assay (Eurofins)) EUB0001049a DYRK1A
[5] = biological target: Interferon-induced, double-stranded RNA-activated protein kinase (Homo sapiens) (UniProt P19525); test: Selectivity interaction (KinomeScan (DiscoverX)) EUB0001049a EIF2AK2; details: at 1 µM
Chain of Interferon-induced, double-stranded RNA-activated protein kinase (Homo sapiens) (P19525 whole entry): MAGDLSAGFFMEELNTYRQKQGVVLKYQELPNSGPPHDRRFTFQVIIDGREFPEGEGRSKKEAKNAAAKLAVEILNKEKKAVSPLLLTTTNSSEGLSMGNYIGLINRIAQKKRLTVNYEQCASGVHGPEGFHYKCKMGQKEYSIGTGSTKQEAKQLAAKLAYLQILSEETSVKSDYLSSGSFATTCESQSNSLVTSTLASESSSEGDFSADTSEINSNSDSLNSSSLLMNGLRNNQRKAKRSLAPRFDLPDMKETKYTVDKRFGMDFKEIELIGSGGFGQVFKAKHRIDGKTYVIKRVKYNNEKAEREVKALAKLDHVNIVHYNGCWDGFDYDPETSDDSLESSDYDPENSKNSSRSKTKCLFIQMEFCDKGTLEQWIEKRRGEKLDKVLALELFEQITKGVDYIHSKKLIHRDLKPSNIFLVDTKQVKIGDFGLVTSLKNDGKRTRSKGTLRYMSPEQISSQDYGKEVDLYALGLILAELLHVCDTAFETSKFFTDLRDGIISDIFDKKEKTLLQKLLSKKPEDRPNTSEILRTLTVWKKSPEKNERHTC

[6] = biological target: T3, Serine/threonine-protein kinase D1 (Homo sapiens) (UniProt Q15139); test: Selectivity interaction (Kinase panel (Z-LYTE Assay)) EUB0001632a PRKD1; details: at 10 µM
T3 sequence (whole entry): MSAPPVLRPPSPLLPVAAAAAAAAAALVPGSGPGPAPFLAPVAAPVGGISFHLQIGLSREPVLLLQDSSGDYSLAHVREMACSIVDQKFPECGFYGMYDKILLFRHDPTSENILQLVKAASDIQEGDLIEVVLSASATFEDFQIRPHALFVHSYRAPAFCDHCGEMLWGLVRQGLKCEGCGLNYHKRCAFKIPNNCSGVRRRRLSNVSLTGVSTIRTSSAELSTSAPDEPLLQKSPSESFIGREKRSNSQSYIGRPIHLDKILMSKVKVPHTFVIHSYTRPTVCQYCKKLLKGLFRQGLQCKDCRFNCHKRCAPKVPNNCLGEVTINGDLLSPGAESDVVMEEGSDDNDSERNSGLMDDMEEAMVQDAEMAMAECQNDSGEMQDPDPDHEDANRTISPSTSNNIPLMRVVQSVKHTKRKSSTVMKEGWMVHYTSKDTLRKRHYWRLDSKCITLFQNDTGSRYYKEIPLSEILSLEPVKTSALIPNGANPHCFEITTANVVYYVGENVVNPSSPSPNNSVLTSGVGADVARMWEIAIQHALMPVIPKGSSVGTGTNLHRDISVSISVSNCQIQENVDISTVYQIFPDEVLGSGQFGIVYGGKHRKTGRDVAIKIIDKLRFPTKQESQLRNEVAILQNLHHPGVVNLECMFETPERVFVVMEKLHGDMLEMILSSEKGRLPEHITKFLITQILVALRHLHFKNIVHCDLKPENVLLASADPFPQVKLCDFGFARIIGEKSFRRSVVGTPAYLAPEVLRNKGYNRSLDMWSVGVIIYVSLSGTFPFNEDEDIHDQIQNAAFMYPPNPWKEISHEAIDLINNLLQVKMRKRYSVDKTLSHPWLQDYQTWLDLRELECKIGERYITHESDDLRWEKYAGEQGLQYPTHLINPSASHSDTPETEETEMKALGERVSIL

[7] = biological target: Tyrosine-protein kinase Fgr (Homo sapiens) (UniProt P09769); test: Selectivity interaction (Kinase panel (Z-LYTE Assay)) EUB0001632a FGR; details: at 10 µM
Chain of Tyrosine-protein kinase Fgr (Homo sapiens) (P09769 2-529 limits assumed): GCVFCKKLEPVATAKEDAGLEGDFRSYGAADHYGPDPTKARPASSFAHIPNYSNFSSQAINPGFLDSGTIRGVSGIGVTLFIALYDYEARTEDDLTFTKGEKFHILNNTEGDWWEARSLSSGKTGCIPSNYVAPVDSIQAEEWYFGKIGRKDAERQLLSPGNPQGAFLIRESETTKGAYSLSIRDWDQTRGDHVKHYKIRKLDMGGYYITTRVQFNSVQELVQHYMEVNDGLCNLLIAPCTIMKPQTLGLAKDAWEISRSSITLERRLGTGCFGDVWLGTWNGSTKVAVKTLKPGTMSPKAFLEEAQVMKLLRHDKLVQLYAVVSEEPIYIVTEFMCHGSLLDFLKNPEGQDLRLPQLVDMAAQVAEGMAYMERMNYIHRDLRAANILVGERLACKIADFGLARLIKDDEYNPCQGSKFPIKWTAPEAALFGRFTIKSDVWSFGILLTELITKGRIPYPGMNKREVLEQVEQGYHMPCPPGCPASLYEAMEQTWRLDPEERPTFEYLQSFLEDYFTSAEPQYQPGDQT

SMILES: CC(C)(O)[C@H](F)CN1Cc2cc(NC(=O)c3cnn4cccnc34)c(N3CCOCC3)cc2C1=O
- dTM [1]: 1.7 K

SMILES: C=CC(=O)Nc1cc(-n2c(=O)ccc3cnc4ccc(-c5ccc(NS(C)(=O)=O)cc5)cc4c32)ccc1C
- % of control ([2]; at 1 µM): 12%
- % of control ([2]; at 10 µM): 100%

- % of growth rate [3]: -8.2%
SMILES: CNCCN1CCC(c2cc(CN(C)C(=O)c3cccc(Oc4ccccc4)c3)ccn2)CC1

SMILES: COc1cc(Nc2nc(C)cc(-c3cnn4nc(OC)ccc34)n2)cc(C(F)(F)F)c1
- pIC50 [4]: < 5.00
- % of control [5]: 100%

- % of control [6]: 3.91%
- % of control [7]: 1.86%
SMILES: Cn1cc(-n2cnc3c(NCc4nc5cc(Cl)c(Cl)cc5[nH]4)nc(N4CCOCC4)nc32)cn1
